pIC50: −log10 of the molar value. Where two headings read alike, the source gives them in different places.
Test system: RPEMYC^H2B-GFP cells
Experiment: Phenotypic screening assay (mitotic arrest, polyploidy)
Format: cell-based
Details: 1 nM to 30 μM; for pIC50: read-out: Proliferative arrest (>50%)
Protocol: We have previously developed a mechanism-informed phenotypic screening assay to identify novel antimitotic agents. Equipped with a prior understanding of the versatile functions of the chromosomal passenger protein (CPP) complex in orchestrating karyokinesis and cytokinesis, the screening assay is to score for phenotypes typically seen when the CPP complex is disabled. Specifically, the parameters for a positive hit are a temporary elevation of mitotic index (MI) at 24 hours of drug treatment and an accumulation of polyploid cells at 48 hours of drug treatment, indicative of mitotic arrest and cytokinetic failure respectively. These parameters exclude compounds that elicit only a prolonged arrest of cells in mitosis, a phenotype typically provoked by spindle toxins. The screening procedure is briefly summarized here. RPEMYC^H2B-GFP cells engineered to express a Histone 2B-EGFP fusion protein were passaged as batches of 96-well plates, 18-24 hours before exposure to the chemical compounds of the present disclosure at concentrations from 1 nM to 30 μM. At 24, 48 or 72 hours after initiation of treatment, cells were analyzed for either an arrest in mitosis or a change in DNA content by GE IN-Cell Analyzer 2000. As set forth in Table 2 below, a value of greater than or equal to 1 nM and less than or equal to 1.0 μM is marked “A”; a value greater than 1.00 μM and less than or equal to 10.0 μM is marked “B”; a value greater than 10.0 μM and less than or equal to 30.0 μM is marked “C”; and a value greater than 30.0 μM is marked “D.”

[1] = read-out: Min. Effective conc. for Polyploidy (≥5%)

| Compound | minimal effective concentration [1] [µM] | minimal effective concentration (read-out: Mitotic Arrest (≥5%)) [µM] | pIC50 |
| --- | --- | --- | --- |
| COc1cc(Oc2ncnc3ccccc23)cc(-n2cnc(C)c2)c1 [Compound 76, 4-(3-Methoxy-5-(4-methyl-1H-imidazol-1-yl)phenoxy)quinazoline] | 1 to 10 | 1 to 10 | 5.00 to 6.00 |
| COc1cc(OC)cc(Oc2ccnc3ccc(Br)cc23)c1 [Compound 48, 6-Bromo-4-(3,5-dimethoxyphenoxy) quinoline] | 0.001 to 1 | 0.001 to 1 | 6.00 to 9.00 |
| [2H]c1cc(Oc2cc(OC)cc([N+](=O)[O-])c2)c2cc(Br)ccc2n1 [Compound 98] | 1 to 10 | 1 to 10 |  |
| CNC(=O)c1ccc2nccc(Oc3cc(OC)cc(-n4cccn4)c3)c2c1 [Compound 57, 4-(3-Methoxy-5-(1H-pyrazol-1-yl)phenoxy)-N-methylquinoline-6-carboxamide] | 0.001 to 1 | 0.001 to 1 | 6.00 to 9.00 |
| COc1cc(Oc2ncnc3ccccc23)cc(-n2cccn2)c1 [Compound 73, 4-(3-Methoxy-5-(1H-pyrazol-1-yl)phenoxy) quinazoline] | 10 to 30 | 10 to 30 | 4.52 to 5.00 |
| COc1cc(NC(C)=O)cc(Oc2ccnc3ccc(C(F)(F)F)cc23)c1 [Compound 55, N-(3-Methoxy-5-((6-(trifluoromethyl)quinolin-4-yl)oxy)phenyl)acetamide] | 0.001 to 1 | 0.001 to 1 | 6.00 to 9.00 |
| COc1cc(NC(C)=O)cc(Oc2ccnc3ccc(C(=O)N(C)C)cc23)c1 [Compound 58, 4-(3-acetamido-5-methoxyphenoxy)-N, N-dimethylquinoline-6-carboxamide] | 1 to 10 | 1 to 10 | 5.00 to 6.00 |
| COC(=O)c1ccc2nccc(Oc3cc(OC)cc(-n4cccn4)c3)c2c1 [Compound 46, Methyl 4-(3-methoxy-5-(1H-pyrazol-1-yl)phenoxy)quinoline-6-carboxylate] | 0.001 to 1 | 0.001 to 1 | 6.00 to 9.00 |
| COc1cc(Oc2ncnc3cc(OC)c(OC)cc23)cc(-n2ccnc2)c1 [Compound 79, 4-(3-(1H-Imidazol-1-yl)-5-methoxyphenoxy)-6,7-dimethoxyquinazoline] | 10 to 30 | 10 to 30 | 4.52 to 5.00 |
| COc1cc(Oc2ccnc3ccc(C(F)(F)F)cc23)cc(-n2cccn2)c1 [Compound 49, 4-(3-Methoxy-5-(1H-pyrazol-1-yl)phenoxy)-6-(trifluoromethyl) quinoline] | 0.001 to 1 | 0.001 to 1 | 6.00 to 9.00 |
| COc1cc(Oc2ccnc3cc(OC)c(OC)cc23)cc(-c2ncccn2)c1 [Compound 63, 6,7-Dimethoxy-4-(3-methoxy-5-(pyrimidin-2-yl)phenoxy) quinoline] | 0.001 to 1 | 0.001 to 1 | 6.00 to 9.00 |
| COc1cc(Oc2ccnc3ccccc23)cc(C(F)(F)F)c1 [Compound 11] | 1 to 10 | 1 to 10 | 5.00 to 6.00 |
| COc1cc(Oc2ccnc3ccccc23)cc(-c2nc(C)no2)c1 [Compound 13, 5-(3-methoxy-5-(quinolin-4-yloxy)phenyl)-3-methyl-oxadiazole] | 0.001 to 1 | 0.001 to 1 | 6.00 to 9.00 |
| COc1cc(OC)cc(Oc2ncnc3ccn(C)c23)c1 [Compound 54, 4-(3,5-Dimethoxyphenoxy)-5-methyl-5H-pyrrolo[3,2-d] pyrimidine] | 10 to 30 | 1 to 10 | 4.52 to 5.00 |
| COc1cc(Oc2ccnc3cc(OC)c(C(N)=O)cc23)cc(-c2ncccn2)c1 [Compound 62, 7-Methoxy-4-(3-methoxy-5-(pyridimin-2-yl)phenoxy) quinoline-6-carboxamide] | 0.001 to 1 | 0.001 to 1 | 6.00 to 9.00 |
